The values that follow come from patent US7250410B2, “Cyclic nucleotide phosphodiesterase inhibitors, preparation and uses thereof” (Via Pharmaceuticals, Inc., priority 2001, dated 2007).

The term inhibition denotes the relative decrease from the control value, in per cent. One may read the IC50 as the midpoint of a concentration-inhibition curve.

One assay has as its target T1, PDE2 (Bos taurus, UniProt P14099).
T1 construct: PDE2 was prepared from bovine endothelial cells by the same methods; endogenous in cells; host or cells: bovine vascular endothelial cells, DEAE-Sephacel fraction
T1 sequence (P14099 1-921): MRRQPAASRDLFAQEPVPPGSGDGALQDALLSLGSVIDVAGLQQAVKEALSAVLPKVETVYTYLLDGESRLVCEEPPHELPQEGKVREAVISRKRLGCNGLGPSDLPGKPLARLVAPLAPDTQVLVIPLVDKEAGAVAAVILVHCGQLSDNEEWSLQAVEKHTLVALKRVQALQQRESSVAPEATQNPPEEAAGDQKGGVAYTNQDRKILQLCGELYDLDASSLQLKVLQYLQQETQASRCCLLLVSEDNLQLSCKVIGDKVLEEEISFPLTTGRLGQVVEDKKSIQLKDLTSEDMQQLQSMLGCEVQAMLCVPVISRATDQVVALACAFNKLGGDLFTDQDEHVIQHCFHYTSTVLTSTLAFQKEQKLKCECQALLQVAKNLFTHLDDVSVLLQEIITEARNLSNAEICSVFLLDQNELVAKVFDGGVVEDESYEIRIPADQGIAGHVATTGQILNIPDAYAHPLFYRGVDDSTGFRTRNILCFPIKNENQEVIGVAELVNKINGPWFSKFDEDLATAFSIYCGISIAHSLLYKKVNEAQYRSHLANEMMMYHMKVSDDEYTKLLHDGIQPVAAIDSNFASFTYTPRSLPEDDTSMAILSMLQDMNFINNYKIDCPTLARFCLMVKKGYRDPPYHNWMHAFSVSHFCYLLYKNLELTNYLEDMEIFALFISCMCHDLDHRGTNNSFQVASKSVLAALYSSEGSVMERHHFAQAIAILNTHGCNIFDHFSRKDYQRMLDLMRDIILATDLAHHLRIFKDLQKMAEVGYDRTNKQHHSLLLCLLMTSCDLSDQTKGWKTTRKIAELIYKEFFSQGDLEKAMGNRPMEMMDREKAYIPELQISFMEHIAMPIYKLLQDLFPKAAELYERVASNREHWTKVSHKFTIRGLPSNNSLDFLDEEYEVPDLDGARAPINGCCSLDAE
The assay is described as follows: Selectivity: inhibition of PDE2, radioenzymatic phosphodiesterase assay. The class given is biochemical, bovine. The conditions noted are these: Table 4 Selectivity; for inhibition at 10 µM: compound at 10 μM, read-out: PDE2 percentage inhibition at 10 μM. As to the method:
(§1) A 3 g segment of bovine aortic media cut into pieces with scissors was homogenized with an ultra-turrax then a potter glass/glass homogenizer in 7 volumes by weight of buffer A containing a protease inhibitor cocktail (20 mM Tris-HCl, 0.25 M saccharose, 2 mM magnesium acetate, 1 mM dithiothreitol, 5 mM EGTA, 2000 U/ml aprotinin, 10 mg/l leupeptin and 10 mg/l soya trypsic inhibitor). The homogenizate was centrifuged at 105,000 g for 1 hour. The supernatant was loaded on a DEAE-Sephacel column (15×1.6 cm) pre-equilibrated with buffer B (buffer A without the saccharose, EGTA and protease inhibitors). The column was washed until there was no detectable absorption at 280 nm, then eluted with a linear gradient of NaCl (0–0.5 M) in buffer B. 3-ml fractions were collected and enzyme activity was determined under the conditions described hereinafter to localize the different enzymes PDE1, PDE3, PDE4 and PDE5, which were aliquoted and frozen at −80° C. (Lugnier et al., Biochem. Phamacol., 35 (1986) 1746–1751). PDE2 was prepared from bovine endothelial cells by the same methods (Lugnier and Schini, Biochem. Pharmacol. 1990, 39; 75–84).
(§2) Cyclic nucleotide phosphodiesterase activity was determined by a radioenzymatic method using tritium-labelled cyclic GMP or AMP (1 μM) as substrate (Lugnier et al., 1986). ^3H-labelled adenosine or guanosine monophosphate formed by hydrolysis of the radiolabelled cyclic nucleotide was then converted to ^3H-labelled adenosine or guanosine in a second reaction with […] in excess. The nucleoside formed was separated from the nucleotides by anion exchange chromatography. Nucleoside radioactivity was determined by liquid scintillation counting. Enzymatic incubations were carried out under conditions allowing no more than 15% hydrolysis of the substrate; each point was performed in duplicate.
(§3) The activity of the compounds was evaluated on other phosphodiesterase isoforms, particularly basal state or calmodulin-activated PDE1 from vascular smooth muscle, basal state or cyclic GMP-activated PDE2 from vascular endothelial cells, PDE3 and PDE5 from vascular smooth muscle.
(§4) The results obtained are presented in Table 4 hereinafter and are expressed as the percentage inhibition of enzymatic activity produced by […] of the tested compound.

For another assay, the target named is PDE1. The experiment in a line: Selectivity: inhibition of PDE1, radioenzymatic phosphodiesterase assay. It counts as biochemical, bovine. On the set-up: PDE1 percentage inhibition at 10 μM: unit: %. The conditions noted are these: Table 4 Selectivity; for PDE1 percentage inhibition at 10 μM: compound at 10 μM. As to the method: as §1, §2, §3, §4
The target in another assay is PDE4. The experiment in a line: Inhibition of PDE4, radioenzymatic phosphodiesterase assay. The class given is biochemical, bovine. Summed up:
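PDE4 partially purified from bovine aortic media by 105,000 g centrifugation and anion-exchange chromatography with an NaCl gradient. Activity measured radioenzymatically: product nucleoside separated from nucleotides by anion exchange and counted by liquid scintillation.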

The next assay concerns the target T2, PDE5 (Bos taurus, UniProt Q28156).
T2 construct: localize the different enzymes PDE1, PDE3, PDE4 and PDE5, which were aliquoted and frozen; from tissue; host or cells: bovine aortic media (vascular smooth muscle), DEAE-Sephacel fraction
The experiment in a line: Selectivity: inhibition of PDE5, radioenzymatic phosphodiesterase assay. The class given is biochemical, bovine. As to conditions: Table 4 Selectivity. As to the method: as §1, §2, §3, §4

A further assay relates to IL1β, IL6 and IL8. The experiment in a line: IL1β, IL6 and IL8 secretion by LPS-activated mononuclear cells from venous blood. It counts as cell-based, human. As to conditions: compound at 1 μM.
Another assay concerns TNFα. The assay is described as follows: TNFα production by LPS-activated mononuclear cells from venous blood (ELISA). It counts as cell-based. As to conditions: Homo sapiens. As to the method:
Compounds according to the invention were assessed for anti-inflammatory properties on mononuclear cells from venous blood of healthy donors (n=4), by a protocol approved by the Alsace No. 1 Ethics Committee. More specifically, the cells were incubated for 24 hours in 24-well plates in the presence of the test compound, after activation by Salmonella Abortis Equi lipopolysaccharide (LPS) (5 pg/ml) (cf. De Groote et al., Cytokine 4, 1992, 239). After incubation, TNFα concentrations were determined in the culture supernatant by an ELISA method (Antibody Solutions, Half Moon Bay, Calif., USA).

The next assay has as its target T3, PDE3 (Bos taurus, UniProt A0A3Q1M1E8).
T3 sequence (A0A3Q1M1E8 1-1126): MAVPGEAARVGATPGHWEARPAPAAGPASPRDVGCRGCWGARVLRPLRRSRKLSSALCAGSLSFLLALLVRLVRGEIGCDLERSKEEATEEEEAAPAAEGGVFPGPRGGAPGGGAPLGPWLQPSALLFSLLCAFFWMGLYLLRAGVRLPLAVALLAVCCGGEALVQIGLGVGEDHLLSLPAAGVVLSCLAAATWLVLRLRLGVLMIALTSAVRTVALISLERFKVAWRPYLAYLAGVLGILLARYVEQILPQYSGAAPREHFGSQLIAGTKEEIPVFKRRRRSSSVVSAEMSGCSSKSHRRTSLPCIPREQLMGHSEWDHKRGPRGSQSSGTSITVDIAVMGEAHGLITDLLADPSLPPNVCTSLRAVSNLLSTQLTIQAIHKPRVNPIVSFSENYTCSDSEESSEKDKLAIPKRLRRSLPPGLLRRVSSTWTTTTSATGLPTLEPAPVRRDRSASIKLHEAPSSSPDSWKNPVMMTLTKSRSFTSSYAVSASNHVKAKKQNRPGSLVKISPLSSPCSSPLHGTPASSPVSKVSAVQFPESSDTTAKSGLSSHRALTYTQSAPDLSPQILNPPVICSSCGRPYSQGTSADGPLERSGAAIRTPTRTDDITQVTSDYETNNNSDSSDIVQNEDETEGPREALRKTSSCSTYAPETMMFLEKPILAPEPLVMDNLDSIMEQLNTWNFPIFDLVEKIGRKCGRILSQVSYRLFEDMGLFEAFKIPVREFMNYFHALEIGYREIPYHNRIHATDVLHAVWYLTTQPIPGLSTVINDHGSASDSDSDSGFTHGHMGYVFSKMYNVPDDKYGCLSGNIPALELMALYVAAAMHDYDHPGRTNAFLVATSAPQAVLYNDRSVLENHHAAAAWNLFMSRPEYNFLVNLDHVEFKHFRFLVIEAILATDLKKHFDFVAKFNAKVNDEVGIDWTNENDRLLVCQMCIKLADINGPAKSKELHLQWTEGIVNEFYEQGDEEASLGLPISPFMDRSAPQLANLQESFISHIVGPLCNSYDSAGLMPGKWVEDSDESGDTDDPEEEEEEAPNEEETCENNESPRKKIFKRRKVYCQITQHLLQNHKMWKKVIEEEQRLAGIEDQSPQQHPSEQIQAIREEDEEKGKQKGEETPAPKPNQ
The assay is described as follows: Selectivity: inhibition of PDE3, radioenzymatic phosphodiesterase assay. The class given is biochemical, bovine. As to conditions: read-out: PDE3 percentage inhibition at 10 μM. As to the method:
as §1, §2, §3, §4

[1] abbreviates: Table 1, formula (III), 1 μM cyclic AMP.
Where [2] appears, read: Table 2, formula (XXII), 1 μM cyclic AMP.

With `CCOc1cc2c(cc1OCC)C(CC)C(=O)N(C)N=C2c1cc2ccccc2s1` (stereo not shown) [IIIbb, 1-(2-benzo[b]thienyl)-7,8-diethoxy-5-ethyl-3-methyl-3,5-dihydro-4H-2,3-benzodiazepin-4-one], at PDE2, the inhibition at 10 µM stood at 25%. In addition, the IC50 on PDE1 came out at 14000 nM; on PDE4 (setting [1]), 87 nM; against PDE4 (Table 4 Selectivity), 87 nM; against PDE5, 5700 nM.

With `COc1cc2c(cc1OC)C(c1cc3ccccc3s1)=NN(C)C(=O)C2` [IIIab, 1-(2-benzo[b]thienyl)-7,8-dimethoxy-3-methyl-3,5-dihydro-4H-2,3-benzodiazepin-4-one], the IC50 at PDE2 worked out at 16000 nM; against PDE1 it was 3810 nM; at PDE4 (setting [1]), 300 nM; against PDE4 (Table 4 Selectivity) it was 300 nM; at PDE5, 4300 nM. Moreover, the “IL1β, IL6 and IL8 secretion levels” value in the assay with IL1β, IL6 and IL8 was “not at all altered”. In addition, the inhibition at 1 µM in the assay with TNFα (compound at 1 μM, 24 hours, LPS 5 pg/ml, read-out: inhibition of TNFα production) is 100%.

In the case of `CCOc1cc2c(cc1OC)C(c1ccccc1)=NC(Cc1cccc(C(N)=O)c1)C(=O)N2C` (stereo not shown) [IIdh, 3-[(8-ethoxy-7-methoxy-1-methyl-2-oxo-5-phenyl-2,3-dihydro-1H-1,4-benzodiazepin-3-yl)methyl]benzamide], the IC50 at PDE4 (Table 3, formula (II), 1 μM cyclic AMP) was 520 nM; with TNFα (read-out: anti-TNFα activity IC50), 100 to 1000 nM.

Take `CCOc1cc2c(cc1OC)C(c1ccccc1)=NCC(=O)N2` [XXIIam, 8-ethoxy-7-methoxy-5-phenyl-1,3-dihydro-2H-1,4-benzodiazepin-2-one]: the inhibition at 10 µM is 36% at PDE2; 35% at PDE5 (compound at 10 μM, read-out: PDE5 percentage inhibition at 10 μM); 36% at PDE3. For the same molecule, the “PDE1 percentage inhibition at 10 μM” value in the assay on PDE1 is on record as 29%. The IC50 against PDE4 (setting [2]) and against PDE4 (Table 4 Selectivity) was 700 nM in each case.

`COc1cc2c(cc1OC)C(c1ccc(-c3ccco3)cc1)=NN(C)C(=O)C2` [IIIav, 1-[4-(2-furyl)phenyl]-7,8-dimethoxy-3-methyl-3,5-dihydro-4H-2,3-benzodiazepin-4-one]: the 50% inhibitory concentration (IC50) stood at 19000 nM on PDE2, 900 nM at PDE4 (setting [1]), 900 nM against PDE4 (Table 4 Selectivity) and 40000 nM against PDE5. Further, in the assay with PDE1, the “PDE1 percentage inhibition at 10 μM” value was found to be 49%. At PDE3, the inhibition at 10 µM is 92%.

Regarding `CCOc1cc2c(cc1OCC)C(c1ccccc1)=NC(C)C(=O)N2` (stereo not shown) [XXIIai, 7,8-diethoxy-3-methyl-5-phenyl-1,3-dihydro-2H-1,4-benzodiazepin-2-one], the values for the inhibition at 10 µM on PDE2 and on PDE3 were 6% and 55%, respectively. In the assay with PDE1, the “PDE1 percentage inhibition at 10 μM” value is 55%. The IC50 against PDE4 (setting [2]) and on PDE4 (Table 4 Selectivity) was 1700 nM in each case.
